Data as given in patent US20230293469A1, “NOVEL PHARMACEUTICAL COMPOSITIONS” (NEUROPRO THERAPEUTICS, INC., priority 2020, published 2023).
“And” between values parts separate entries of the source, which are not always exact repeats. Equal values may be shown once.

Experiment: Oral dose PK of NPT-2042 in rat
Type: in vivo
Protocol: Assays were performed to determine absolute bioavailability of NPT2042 in two species: dog and rat. The calculation of absolute bioavailability depends on four inputs: the areas under the curves (AUC) for oral and IV, and the oral and IV doses.
Testing was conducted to determine AUCs for an oral dose in rat.

[1] = plasma, NPT-2042, rat, oral 30 mg/kg
[2] = rat, oral, dose column 30 mg/kg, individual rats and Mean (N=3)
[3] = rat, oral, dose column 30 mg/kg, individual rats and Mean (N=3), mean

CCCCNc1cc(C(=O)N(Cc2ccccc2)Cc2ccccc2)cc(S(N)(=O)=O)c1Oc1ccccc1 [NPT-2042, N,N-Dibenzyl 3-Aminosulfonyl-5-butylamino-4-phenoxybenzamide]
half-life (in vivo, NPT-2042, rat, oral 30 mg/kg, read-out: t½ (converted)): 2.61 h | bioavailability (in vivo, rat, oral 30 mg/kg vs IV 10 mg/kg, read-out: Fabs (%), absolute bioavailability): 0.34% | AUC(0-inf) [1]: 0.0354 µg·h/mL | Cmax [1]: 4.56 ng/mL | Tmax [1]: 4 h | concentration at 0.5 h (rat, in vivo, oral, 30 mg/kg, rat, oral, dose column 30 mg/kg, individual rats and Mean (N=3), read-out: NPT-2042 concentration, Time 0.50 h): 2.01 ng/mL | concentration at 2 h (rat, in vivo, oral, 30 mg/kg, rat, oral, dose column 30 mg/kg, individual rats and Mean (N=3), read-out: NPT-2042 concentration, Time 2.00 h): 4 ng/mL | concentration at 4 h (rat, in vivo, oral, 30 mg/kg, rat, oral, dose column 30 mg/kg, individual rats and Mean (N=3), read-out: NPT-2042 concentration, Time 4.00 h): 3.52 ng/mL | concentration at 6 h (rat, in vivo, oral, 30 mg/kg, rat, oral, dose column 30 mg/kg, individual rats and Mean (N=3), read-out: NPT-2042 concentration, Time 6.00 h): 3.99 ng/mL | concentration at 12 h (rat, in vivo, oral, 30 mg/kg, rat, oral, dose column 30 mg/kg, individual rats and Mean (N=3), read-out: NPT-2042 concentration, Time 12.00 h): 0.78 ng/mL | Fabs (ratio), absolute bioavailability (rat, oral 30 mg/kg vs IV 10 mg/kg): 0.0034 | NPT-2042 concentration, Time 0.50 h [2]: 1.29 ng/mL and 1.67 ng/mL | NPT-2042 concentration, Time 1.00 h [2]: 2.14 ng/mL and 4.70 ng/mL and 2.45 ng/mL | NPT-2042 concentration, Time 2.00 h [2]: 2.88 ng/mL and 3.60 ng/mL | NPT-2042 concentration, Time 4.00 h [2]: 5.42 ng/mL and 4.73 ng/mL | NPT-2042 concentration, Time 6.00 h [2]: 2.49 ng/mL and 4.15 ng/mL | NPT-2042 concentration, Time 8.00 h [2]: 1.57 ng/mL and 2.57 ng/mL and 3.20 ng/mL | NPT-2042 concentration, Time 12.00 h [2]: 0.715 ng/mL and 0.731 ng/mL | NPT-2042 concentration, Time 0.50 h [3]: 1.66 ng/mL | NPT-2042 concentration, Time 1.00 h [3]: 3.10 ng/mL | NPT-2042 concentration, Time 2.00 h [3]: 3.49 ng/mL | NPT-2042 concentration, Time 4.00 h [3]: 4.56 ng/mL | NPT-2042 concentration, Time 6.00 h [3]: 3.54 ng/mL | NPT-2042 concentration, Time 8.00 h [3]: 2.45 ng/mL | NPT-2042 concentration, Time 12.00 h [3]: 0.742 ng/mL
